Patent publication US11160788B2, “Caspase-1 inhibition and uses thereof for prevention and treatment of neurological conditions” (priority 2016, dated 2021)
Entries after “also recorded” stand apart in the source; their conditions may differ.

Assays:
recombinant human Casp1 = target: T1, recombinant human Casp1 (Homo sapiens, UniProt P29466); experiment: Caspase inhibition IC50, recombinant human Casp1; format: biochemical; settings: read-out: IC50 against human Casp1
T1 sequence (P29466 120-297 limits assumed): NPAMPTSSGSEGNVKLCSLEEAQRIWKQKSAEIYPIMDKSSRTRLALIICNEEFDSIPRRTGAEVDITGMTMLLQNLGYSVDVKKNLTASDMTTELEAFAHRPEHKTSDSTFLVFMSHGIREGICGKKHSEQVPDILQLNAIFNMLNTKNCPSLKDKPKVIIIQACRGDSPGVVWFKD
T1 sequence (P29466 317-404 limits assumed): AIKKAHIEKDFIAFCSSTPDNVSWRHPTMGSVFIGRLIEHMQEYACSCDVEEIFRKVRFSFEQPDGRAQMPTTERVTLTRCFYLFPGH
Protocol: FIG. 14: Selectivity and blood brain permeability of VX-765 and VRT-043198. (a-b) IC50 of VX-765 (a) and VRT-043198 (b) against human Casp1-10. (c-d) IC50 of VX-765 (c) and VRT-043198 (d) against mouse Casp1 and Casp11. (e) Blood brain barrier permeability and presence of VX-765 and VRT-043198 in 3 wild type and 4 J20 mice brain cortex and hippocampus and in plasma. Ratios of brain levels to plasma levels are calculated.

J20 mice [1] = experiment: Synaptophysin immunostaining, preventive treatment of J20 mice; format: in vivo, mouse
Description: FIG. 4: Immunostainings of mice hippocampus at 4 months of age (PREVENTION GROUP) with microglial Iba-1, astrocyte GFAP, and synaptic synaptophysin antibodies.
FIG. 27: Synaptophysin immunopositive staining in the hippocampus of mice brains at different times of washout. All sections were immunostained together and automatically with Dako immunostainer.
(§1) We directly tested whether pre-symptomatic inhibition of inflammation in a mouse genetic model of Alzheimer disease can stem the progression of memory and behavioral deficits, and Alzheimer disease-like pathology. The J20 amyloid precursor protein Swedish/Indiana mutant mouse was treated at 2 months of age for a one month period with 50 mg/Kg Caspase-1 inhibitor VX-765 (FIG. 22a).

J20 mice [2] = experiment: Open field, preventive treatment of pre-symptomatic J20 mice; format: in vivo, mouse
Protocol: FIG. 21: Open-field assessment to assess hyperactivity in J20 mice. Mice were treated with vehicle (WT and J20) or 50 mg/kg VX-765 (J20) at 2 months of age for 1 month (3 injections per week×4 weeks=12 injections). Hyperactivity was assessed by measuring the distance travelled (a), the number of quadrant entries (b), and the % time moving (c), while anxiety was assessed by the % time spent in periphery (d).
Studies are done on 8 (pre-symptomatic) week old J20 and littermate WT controls injected with 50 mg/Kg VX-765 or vehicle. The 8 week old mice are injected for 4 weeks (3 injections per week) and monitored for memory deficits at 16 weeks of age and every 4 weeks thereafter until the mice reach 8 months of age. VX-765 delays the onset of cognitive deficits by at least 5 months in the J20 mouse.
as §1

J20 mice [3] = experiment: Aβ immunostaining, thioflavin S and ELISA, treated symptomatic J20 mice brains; format: in vivo, mouse
Description: FIG. 11: VX-765 prevents the progression of Aβ in J20 mice. (a) Aβ immunohistographs of the stratum lacunosum molecular layer of the hippocampus and S1 cortex of pre-treated 5-month old J20 (baseline) and 8-month old vehicle- or VX-765-treated WT or J20 mice with anti-F2576 antiserum (Scale bar=50 μm). (b) Quantitative analysis comparing Aβ immunostaining density between J20+Vehicle (n=5) and J20+VX-765 (n=4) mice in the hippocampus from the pyramidal cell layer to the stratum lacunosum molecular layer (p=0.0029) and cortex (p=0.0314, unpaired t test). (c) Quantitative analysis comparing RIPA-soluble Aβ42 over total Aβ (Aβ38+Aβ40+Aβ42) levels in pre-treated 5-month old J20, 8-month old vehicle- or VX-765 treated J20 mice hippocampus (F(2,9)=6.614, p=0.0171, ANOVA, Tukey's post-hoc, * p<0.05). No ELISA signal was obtained from WT mice brains. (d) RIPA-soluble total Aβ measured by ELISA in pg/mg brain tissue. (e,f) Formic acid soluble Aβ42 over total Aβ (Aβ38+Aβ40+Aβ42) (e) and total Aβ (f) levels measured by ELISA in pg/mg brain tissue. Student t-test used to assess difference between J20+vehicle and J20+VX-765. (g,h,i) RIPA-soluble and (j,k,l) formic acid soluble Aβ38, Aβ40, and Aβ42 measured by ELISA in pg/mg brain tissue. (m) APP mRNA and protein levels and (n) insulin degrading enzyme (IDE) and neprilysin mRNA levels (o) in hippocampus and cortex.
FIG. 19: Aβ stained with Thioflavin S or anti-Aβ1-40 F25276 antiserum in mice hippocampi or cortex. (a) Comparison of anti-Aβ immunostaining and thioflavin S stained Aβ in 8 month old vehicle-treated WT and J20 and in VX-765-treated J20 brain hippocampi and cortex (after T3). (b) Anti-Aβ F25276 immunopositive staining in 8 month old vehicle-treated J20, J20/Casp1−/−, and VX-765-treated (T3) mice hippocampi. (c) Higher magnification of Aβ and Iba1 immunopositive deposits in 8 month old vehicle-treated J20, J20/Casp1^−/−, and VX-765-treated (T3) mice hippocampi.
(§2) To assess AD-like pathology, immunohistochemical analyses were performed to detect amyloid deposition (anti-AβF25276)^5,6, microglial (Iba1) activation^7, astrogliosis (GFAP), synaptophysin protein levels on coronal brain sections. Multiplex MSD ELISA was used to assess Aβ levels and 38,40, and 42 subtypes, and II-1β brain levels. RT-PCR was used to assess levels of human APP^Sw/Ind.

J20 mice [4] = experiment: Iba1 microglia immunohistochemistry, treated symptomatic J20 mice brains; format: in vivo, mouse
Description: FIG. 10: VX-765 reverses neuroinflammation in J20 mice. (a) Iba-1 positive microglia immunohistographs in the stratum lacunosum molecular area of the hippocampus and S1 of cortex (Scale bar=50 μm). (b) Stereological quantification of Iba-1^+ microglia for WT+Vehicle (n=6), J20+Vehicle (n=5), and J20+VX-765 (n=4) in the hippocampus from the pyramidal cell layer to the stratum lacunosum molecular layer (F(2,11)=58, p<0.0001) and cortex (F(2,11)=39.95, p<0.0001, ANOVA, Dunnett's post-hoc compared to J20+Vehicle, ***p<0.001). (c) Average percentage distribution of morphological microglial subtypes 1 (black (lowermost) bar), 2 (light grey bar), 3 (dark grey bar) and 4 (black (uppermost) bar). (d) II1-β pg/mg levels measured by ELISA in pre-treated J20 at 5 months of age and in treated WT and J20 8 months of age. (e) Astroglial GFAP^+ immunohistographs.
as §2

IC50 (recombinant human Casp1): 3.68 nM
SMILES: CCO[C@@H]1OC(=O)C[C@@H]1NC(=O)[C@@H]1CCCN1C(=O)[C@@H](NC(=O)c1ccc(N)c(Cl)c1)C(C)(C)C [VX-765, (S)-1-((S)-2-{[1-(4-amino-3-chloro-phenyl)-methanoyl]-amino}-3,3-dimethyl-butanoyl)-pyrrolidine-2-carboxylic acid ((2R,3S)-2-ethoxy-5-oxo-tetrahydro-furan-3-yl)-amide]
synaptophysin levels (J20 mice [1]; 4 month old J20 brains): impressive preservation of synaptophysin levels | synaptophysin immunostaining (J20 mice [1]; hippocampus, different times of washout): partly re-established | open field hyperactivity (distance travelled, quadrant entries) (J20 mice [2]; 4 months of age (4 week washout)): normal behavior at 4 months of age; also recorded: behave as the vehicle-treated WT mice | open field hyperactivity (J20 mice [2]; 5 months of age (8 week washout) and thereafter): hyperactivity returned by 5 months of age; also recorded: lost at the 8 week washout assessment and thereafter | % time of movement (J20 mice [2]; 8 week to 20 week washout): did not alter | Aβ42 level in cortex (J20 mice [3]; ELISA of RIPA-extracted brain proteins): reduced | formic acid soluble Aβ38, Aβ40, Aβ42 (J20 mice [3]; hippocampal and cortical tissues): less abundant | RIPA soluble Aβ42 (J20 mice [3]; hippocampus): reduced in the hippocampus | formic acid soluble Aβ42 over total Aβ38+40+42 (J20 mice [3]; hippocampus): also reduced | RIPA-soluble Aβ42 over total Aβ38+40+42 (J20 mice [3]; hippocampus and cortex): also reduced | formic acid soluble total Aβ (J20 mice [3]; hippocampus and cortex): strongly decreased | deposited Aβ (thioflavin S, anti-Aβ immunostaining) (J20 mice [3]; hippocampus and cortex, 50 mg/kg, 12 injections, vs vehicle-injected J20, 50 mg/kg): only retained rare amyloid deposits; also recorded: substantially reduced | Iba1-positive microglia in hippocampus CA1 (J20 mice [4]; 50 mg/kg, 12 injections, 8 month old J20): normalized; also recorded: reduced to WT levels | number of Iba1+ microglia, pyramidal cell layer to stratum lacunosum molecular layer of CA1 (J20 mice [4]; 50 mg/kg, after Treatment 3, stereological quantification): returned to normal | microglial activation measured morphologically (J20 mice [4]; hippocampus and cortex, vs vehicle-treated J20): more resting, and less activated, microglia
